Data taken from patent US11254688B2 (Boehringer Ingelheim International GmbH, priority 2018, dated 2022).
Where a name gives a salt, the structure may show the parent alone.

What follows are compounds tested against T1, hGOAT (Homo sapiens, UniProt Q96T53) (assay: Determination of hGOAT activity in HEK293 cells after incubation with test compound (acyl-ghrelin ELISA)). Conditions: HEK293 cells stably transfected with preproghrelin and human GOAT; octanoate-BSA 100 μM; 5 hours incubation; acyl-ghrelin in medium by ELISA; 8 compound concentrations.
T1 construct: expressed in transfected cells; host or cells: HEK293 (Hek293 hGOAT/PPGhrl Clone #1B8)
T1 sequence (Q96T53 1-435): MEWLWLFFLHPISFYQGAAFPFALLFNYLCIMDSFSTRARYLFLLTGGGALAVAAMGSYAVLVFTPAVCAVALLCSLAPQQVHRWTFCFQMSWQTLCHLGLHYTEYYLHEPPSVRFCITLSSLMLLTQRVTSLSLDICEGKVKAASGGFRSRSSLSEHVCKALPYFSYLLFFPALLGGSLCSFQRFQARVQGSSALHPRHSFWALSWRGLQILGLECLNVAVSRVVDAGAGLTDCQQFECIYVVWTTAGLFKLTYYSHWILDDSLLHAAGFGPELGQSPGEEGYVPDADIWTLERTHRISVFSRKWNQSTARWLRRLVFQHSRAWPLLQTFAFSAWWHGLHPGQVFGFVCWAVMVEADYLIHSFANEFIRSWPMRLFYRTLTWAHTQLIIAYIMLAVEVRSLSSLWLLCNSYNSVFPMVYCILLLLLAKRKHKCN
Format: cell-based

Structure (SMILES)	IC50
Cc1nc2nonc2c(N)c1Cc1ccc(C2(C(=O)O)CC2)nc1 [Compound 19.2, 1-[5-({7-Amino-5-methyl-[1,2,5]oxadiazolo[3,4-b]pyridin-6-yl}methyl)pyridin-2-yl]cyclopropane-1-carboxylic Acid]	8.42 nM
Cc1nc2nonc2c(N)c1Cc1ccc(C(C)(C)C(N)=O)nc1 [Compound 19.3, 2-[5-({7-Amino-5-methyl-[1,2,5]oxadiazolo[3,4-b]pyridin-6-yl}methyl)pyridin-2-yl]-2-methylpropanamide]	0.555 nM
Cc1nc2nonc2c(N)c1Cc1ccc(C(C)(C)C(=O)O)nc1 [Compound 19.4, 2-[5-({7-Amino-5-methyl-[1,2,5]oxadiazolo[3,4-b]pyridin-6-yl}methyl)pyridin-2-yl]-2-methylpropanoic Acid]	0.534 nM
Cc1nc2nonc2c(N)c1Cc1ccc(Br)c(C(N)=O)c1 [Compound 19.5, 5-({7-Amino-5-methyl-[1,2,5]oxadiazolo[3,4-b]pyridin-6-yl}methyl)-2-bromobenzamide]	2.22 nM
Cc1nc2nonc2c(N)c1Cc1ccc(F)c(C(N)=O)c1 [Compound 19.6, 5-({7-Amino-5-methyl-[1,2,5]oxadiazolo[3,4-b]pyridin-6-yl}methyl)-2-fluorobenzamide]	2.06 nM
Cc1nc2nonc2c(N)c1Cc1ccc(C(F)(F)F)c(C(N)=O)c1 [Compound 19.7, 5-({7-Amino-5-methyl-[1,2,5]oxadiazolo[3,4-b]pyridin-6-yl}methyl)-2-(trifluoromethyl) benzamide]	7.97 nM
Cc1nc2nonc2c(N)c1Cc1ccc(-n2cc(C#N)cn2)nc1 [Compound 20.1, 1-[5-({7-Amino-5-methyl-[1,2,5]oxadiazolo[3,4-b]pyridin-6-yl}methyl)pyridin-2-yl]-1H-pyrazole-4-carbonitrile Trifluoro-Acetic Acid Salt]	4.63 nM
Cc1nc2nonc2c(N)c1Cc1ccc(-n2cccn2)nc1 [Compound 20.2, 5-Methyl-6-{[6-(1H-pyrazol-1-yl)pyridin-3-yl]methyl}-[1,2,5]oxadiazolo[3,4-b]pyridin-7-amine Trifluoro-Acetic Acid Salt]	3.24 nM
Cc1nc2nonc2c(N)c1Cc1ccc(C#N)c(OCC(F)(F)F)c1 [Compound 21.1, 4-({7-Amino-5-methyl-[1,2,5]oxadiazolo[3,4-b]pyridin-6-yl}methyl)-2-(2,2,2-trifluoroethoxy)benzonitrile]	0.099 nM
Cc1nc2nonc2c(N)c1Cc1ccc(C#N)c(OCC(F)F)c1 [Compound 21.2, 4-({7-Amino-5-methyl-[1,2,5]oxadiazolo[3,4-b]pyridin-6-yl}methyl)-2-(2,2-difluoroethoxy)benzonitrile]	0.176 nM
Cc1nc2nonc2c(N)c1Cc1ccc(C#N)c(O[C@H]2CCNC2=O)c1 [Compound 21.3, 4-({7-Amino-5-methyl-[1,2,5]oxadiazolo[3,4-b]pyridin-6-yl}methyl)-2-{[(3S)-2-oxopyrrolidin-3-yl]oxy}benzonitrile]	1.58 nM
Cc1nc2nonc2c(N)c1Cc1ccc(C#N)c(OCCC(F)(F)F)c1 [Compound 21.4, 4-({7-Amino-5-methyl-[1,2,5]oxadiazolo[3,4-b]pyridin-6-yl}methyl)-2-(3,3,3-trifluoropropoxy)benzonitrile]	0.786 nM
Cc1nc2nonc2c(N)c1Cc1ccc(C#N)c(OCC2CC2(F)F)c1 (stereo not drawn) [Compound 21.5, 4-({7-Amino-5-methyl-[1,2,5]oxadiazolo[3,4-b]pyridin-6-yl}methyl)-2-[(2,2-difluorocyclopropyl)methoxy]benzonitrile]	0.198 nM
Cc1nc2nonc2c(N)c1Cc1ccc(C#N)c(OCC(C)(C)O)c1 [Compound 21.6, 4-({7-Amino-5-methyl-[1,2,5]oxadiazolo[3,4-b]pyridin-6-yl}methyl)-2-(2-hydroxy-2-methylpropoxy)benzonitrile]	0.15 nM
Cc1nc2nonc2c(N)c1Cc1ccc(C#N)c(OCC2(C(F)(F)F)CC2)c1 [Compound 21.7, 4-({7-Amino-5-methyl-[1,2,5]oxadiazolo[3,4-b]pyridin-6-yl}methyl)-2-{[1-(trifluoromethyl)cyclopropyl]methoxy}benzonitrile]	0.278 nM
Cc1nc2nonc2c(N)c1Cc1ccc(C#N)c(OC2CCN(C)C2)c1 (stereo not drawn) [Compound 21.8, 4-(7-Amino-5-methyl-[1,2,5]oxadiazolo[3,4-b]pyridin-6-ylmethyl)-2-(1-methyl-pyrrolidin-3-yloxy)-benzonitrile]	1.09 nM
Cc1nc2nonc2c(N)c1Cc1ccc(C#N)c(O[C@H]2CCC(=O)NC2)c1 [Compound 21.9, 4-({7-Amino-5-methyl-[1,2,5]oxadiazolo[3,4-b]pyridin-6-yl}methyl)-2-{[(3S)-6-oxopiperidin-3-yl]oxy}benzonitrile]	17 nM
Cc1nc2nonc2c(N)c1Cc1ccc(OC2CCOC2)nc1 (stereo not drawn) [Compound 21.10, 5-Methyl-6-{[6-(oxolan-3-yloxy)pyridin-3-yl]methyl}-[1,2,5]oxadiazolo[3,4-b]pyridin-7-amine]	2.57 nM

Structure (SMILES)	IC50
Cc1nc2nonc2c(N)c1Cc1ccc(OCC2(C)COC2)nc1 [Compound 21.11, 5-Methyl-6-({6-[(3-methyloxetan-3-yl)methoxy]pyridin-3-yl}methyl)-[1,2,5]oxadiazolo[3,4-b]pyridin-7-amine]	1.92 nM
Cc1nc2nonc2c(N)c1Cc1ccc(OC2CCOCC2)nc1 [Compound 21.12, 5-Methyl-6-[6-(tetrahydro-pyran-4-yloxy)-pyridin-3-ylmethyl]-[1,2,5]oxadiazolo[3,4-b]pyridin-7-ylamine]	0.978 nM
Cc1nc2nonc2c(N)c1Cc1ccc(Cl)cc1 [Compound 22.1, 6-[(4-Chlorophenyl)methyl]-5-methyl-[1,2,5]oxadiazolo[3,4-b]pyridin-7-amine]	0.432 nM
Cc1nc2nonc2c(N)c1C(=O)c1ccc(OC(F)(F)F)cc1 [Compound 22.2, 5-Methyl-6-[4-(trifluoromethoxy)benzoyl]-[1,2,5]oxadiazolo[3,4-b]pyridin-7-amine]	2.49 nM
Nc1c(Cc2ccc(Br)cc2)c(Cl)nc2nonc12 [Compound 23.1, 6-[(4-Bromophenyl)methyl]-5-chloro-[1,2,5]oxadiazolo[3,4-b]pyridin-7-amine]	0.485 nM
Nc1c(Cc2ccc(C(F)(F)F)cc2)c(Cl)nc2nonc12 [Compound 23.2, 5-Chloro-6-{[4-(trifluoromethyl)phenyl]methyl}-[1,2,5]oxadiazolo[3,4-b]pyridin-7-amine]	0.232 nM
Nc1c(Cc2ccc(OC(F)(F)F)cc2)c(Cl)nc2nonc12 [Compound 23.3, 5-Chloro-6-{[4-(trifluoromethoxy)phenyl]methyl}-[1,2,5]oxadiazolo[3,4-b]pyridin-7-amine]	0.298 nM
COc1cc(Cc2c(Cl)nc3nonc3c2N)ccc1C(F)(F)F [Compound 23.4, 5-Chloro-6-{[3-methoxy-4-(trifluoromethyl)phenyl]methyl}-[1,2,5]oxadiazolo[3,4-b]pyridin-7-amine]	0.139 nM
Nc1c(Cc2ccc(F)cc2)c(Cl)nc2nonc12 [Compound 23.5, 5-Chloro-6-[(4-fluorophenyl)methyl]-[1,2,5]oxadiazolo[3,4-b]pyridin-7-amine]	0.737 nM
COc1cc(Cc2c(Cl)nc3nonc3c2N)ccc1Br [Compound 23.6, 6-[(4-Bromo-3-methoxyphenyl)methyl]-5-chloro-[1,2,5]oxadiazolo[3,4-b]pyridin-7-amine]	0.078 nM
COc1cc(Cc2c(Cl)nc3nonc3c2N)ccc1C#N [Compound 23.7, 4-({7-Amino-5-chloro-[1,2,5]oxadiazolo[3,4-b]pyridin-6-yl}methyl)-2-methoxybenzonitrile]	0.178 nM
Nc1c(Cc2ccc(C(F)(F)F)cc2)c(Br)nc2nonc12 [Compound 24.1, 5-Bromo-6-{[4-(trifluoromethyl)phenyl]methyl}-[1,2,5]oxadiazolo[3,4-b]pyridin-7-amine]	0.475 nM
Nc1c(Cc2ccc(C(F)(F)F)cc2)c(CO)nc2nonc12 [Compound 24.2, (7-Amino-6-{[4-(trifluoromethyl)phenyl]methyl}-[1,2,5]oxadiazolo[3,4-b]pyridin-5-yl)methanol]	5.73 nM
CN(C)c1nc2nonc2c(N)c1Cc1ccc(C(F)(F)F)cc1 [Compound 24.3, N5,N5-Dimethyl-6-{[4-(trifluoromethyl)phenyl]methyl}-[1,2,5]oxadiazolo[3,4-b]pyridine-5,7-diamine Trifluoroacetic Acid Salt]	6.12 nM
N#Cc1nc2nonc2c(N)c1Cc1ccc(C(F)(F)F)cc1 [Compound 24.4, 7-Amino-6-{[4-(trifluoromethyl)phenyl]methyl}-[1,2,5]oxadiazolo[3,4-b]pyridine-5-carbonitrile]	2.42 nM
Nc1c(Cc2ccc(C(F)(F)F)cc2)c(C(F)F)nc2nonc12 [Compound 24.5, 5-(Difluoromethyl)-6-{[4-(trifluoromethyl)phenyl]methyl}-[1,2,5]oxadiazolo[3,4-b]pyridin-7-amine]	0.289 nM
Cc1nc2nonc2c(N)c1Cc1ccc(Cl)nc1C(F)F [Compound 25.1, 6-{[6-Chloro-2-(difluoromethyl)pyridin-3-yl]methyl}-5-methyl-[1,2,5]oxadiazolo[3,4-b]pyridin-7-amine]	3.5 nM
Cc1nc2nonc2c(N)c1Cc1cnc(Cl)cc1C(F)F [Compound 25.2, 6-{[6-Chloro-4-(difluoromethyl)pyridin-3-yl]methyl}-5-methyl-[1,2,5]oxadiazolo[3,4-b]pyridin-7-amine]	4.84 nM
